From ChEMBL document CHEMBL4823282, “Novel Broad-Spectrum Antimicrobial Peptide Derived from Anoplin and Its Activity on Bacterial Pneumonia in Mice” (J Med Chem, 2021)
Converted amounts (≈) assume the structure as drawn. The source made the active and inactive calls. No cut-off for these calls is given here. Where a SMILES comes first, the peptide text is derived from it.

Columns and labels:
[1] = system: Staphylococcus aureus; experiment: Disruption of bacterial cell membrane in Staphylococcus aureus ATCC 25923 assessed as increase in PI uptake incubated for 30 to 120 mins by FACS flow cytometry; assay type: functional, organism-based; conditions: time 30-120 min
[2] = system: Bacteria; experiment: Antibacterial activity against Gram-positive bacteria incubated for 18 hrs by CLSI based broth dilution method; assay type: functional
[3] = system: Klebsiella pneumoniae; experiment: Antibacterial activity against Klebsiella pneumoniae ATCC 700603 incubated with 0.2 to 0.02 ug/ml chymotrypsin for 6 hrs followed by bacterial addition and measured after 18 hrs by CLSI based broth dilution method; assay type: functional, organism-based; conditions: dose 0.2-0.02 µg/ml, time 23.0 hrs
[4] = system: Escherichia coli; experiment: Antibacterial activity against Escherichia coli ATCC 25922 incubated for 18 hrs by CLSI based broth dilution method; assay type: functional
[5] = system: Pseudomonas aeruginosa; experiment: Antibacterial activity against Pseudomonas aeruginosa ATCC 27853 at 0.5 to 4 times MIC incubated for 24 hrs by crystal violet staining based assay; assay type: functional, organism-based
[6] = Selectivity ratio of MHC10 for BALB/C mouse erythrocytes to MIC for gram-negative bacteria; assay type: toxicity
[7] = system: Klebsiella pneumoniae; experiment: Bactericidal activity against Klebsiella pneumoniae 700603 at 2MIC by time-kill assay relative to control; assay type: functional; conditions: 2M, TDE = time-dependent effect
[8] = system: Cell membrane; experiment: Induction of inner membrane permeabilization in Klebsiella pneumoniae ATCC 700603 at 0.5 to 4MIC using ONPG as substrate by spectroscopic method; assay type: subcellular; conditions: Klebsiella pneumoniae 700603, 0.5 to 4M
[9] = Selectivity ratio of MHC10 for BALB/C mouse erythrocytes to MIC for gram positive bacteria; assay type: toxicity
[10] = system: Staphylococcus aureus; experiment: Antibacterial activity against Staphylococcus aureus ATCC 25923 incubated with 0.2 to 0.02 ug/ml trypsin for 6 hrs followed by bacterial addition and measured after 18 hrs by CLSI based broth dilution method; assay type: functional, organism-based; conditions: dose 0.2-0.02 µg/ml, time 23.0 hrs
[11] = system: Staphylococcus aureus; experiment: Bactericidal activity against Staphylococcus aureus ATCC 25923 at 2MIC by time-kill assay; assay type: functional, organism-based; conditions: time 24.0 hrs, TDE = time-dependent effect
[12] = system: Staphylococcus aureus; experiment: Antibacterial activity against Staphylococcus aureus ATCC 25923 incubated with 0.2 to 0.02 ug/ml chymotrypsin for 6 hrs followed by bacterial addition and measured after 18 hrs by CLSI based broth dilution method; assay type: functional, organism-based; conditions: dose 0.2-0.02 µg/ml
[13] = system: Bacteria; experiment: Antibacterial activity against Gram-negative bacteria incubated for 18 hrs by CLSI based broth dilution method; assay type: functional
[14] = system: Erythrocyte; experiment: Hemolytic activity in BALB/C mouse erythrocytes incubated for 1 hr by absorbance method; assay type: ADME, cell-based
[15] = Selectivity ratio of MHC10 for BALB/C mouse erythrocytes to MIC for bacteria; assay type: toxicity
[16] = system: Escherichia coli; experiment: Antibiofilm activity against Escherichia coli ATCC 25922 at 4 times MIC incubated for 24 hrs by crystal violet staining based assay; assay type: functional, organism-based
[17] = Stability in BALB/C mouse serum assessed as compound degradation time measured up to 1440 mins by HPLC analysis; assay type: ADME, cell-free; conditions: 24 h
[18] = system: Cell membrane; experiment: Disruption of membrane integrity in Staphylococcus aureus ATCC 25923 assessed as bacterial death at 1 times MIC measured within 0.5 hrs by scanning electron microscopy; assay type: subcellular
[19] = system: Enterococcus faecalis; experiment: Antibacterial activity against Enterococcus faecalis ATCC 29212 incubated for 18 hrs by CLSI based broth dilution method; assay type: functional
[20] = system: Staphylococcus aureus; experiment: Antibacterial activity against Staphylococcus aureus ATCC 25923 incubated for 18 hrs by CLSI based broth dilution method; assay type: functional
[21] = system: Klebsiella pneumoniae; experiment: Antibacterial activity against Klebsiella pneumoniae ATCC 700603 incubated with 0.2 to 0.02 ug/ml trypsin for 6 hrs followed by bacterial addition and measured after 18 hrs by CLSI based broth dilution method; assay type: functional, organism-based; conditions: dose 0.2-0.02 µg/ml, time 23.0 hrs
[22] = system: Staphylococcus epidermidis; experiment: Antibacterial activity against Staphylococcus epidermidis ATCC 12228 incubated for 18 hrs by CLSI based broth dilution method; assay type: functional
[23] = system: Bacillus subtilis; experiment: Antibacterial activity against Bacillus subtilis ATCC 23857 incubated for 18 hrs by CLSI based broth dilution method; assay type: functional
[24] = system: Pseudomonas aeruginosa; experiment: Synergistic antibacterial activity against Pseudomonas aeruginosa ATCC 27853 at 2 times MIC incubated for 18 to 24 hrs in presence of 2 times MIC of polymyxin B by broth microdilution assay based checkerboard assay; assay type: functional; conditions: time 18-24 hrs
[25] = system: Klebsiella pneumoniae; experiment: Antibiofilm activity against Klebsiella pneumoniae ATCC 700603 at 2 to 4 times MIC incubated for 24 hrs by crystal violet staining based assay; assay type: functional, organism-based
[26] = system: Fungi; experiment: Antibacterial activity against fungi incubated for 18 hrs by CLSI based broth dilution method; assay type: functional
[27] = system: Staphylococcus aureus; experiment: Antibacterial activity against Staphylococcus aureus ATCC 25923 at 0.5 to 1 times MIC incubated for 24 hrs by crystal violet staining based assay; assay type: functional, organism-based
[28] = Selectivity ratio of MHC10 for BALB/C mouse erythrocytes to MIC for fungi; assay type: toxicity
[29] = system: Staphylococcus aureus; experiment: Disruption of membrane integrity in Staphylococcus aureus ATCC 25923 assessed as membrane blebbing at 1 times MIC measured within 0.5 hrs by scanning electron microscopy; assay type: functional, organism-based
[30] = Stability in BALB/C mouse serum measured up to 1440 mins by HPLC analysis; assay type: ADME, cell-free
[31] = system: Pseudomonas aeruginosa; experiment: Antibacterial activity against Pseudomonas aeruginosa ATCC 27853 incubated for 18 hrs by CLSI based broth dilution method; assay type: functional
[32] = system: Acinetobacter baumannii; experiment: Antibacterial activity against Acinetobacter baumannii ATCC 19606 incubated for 18 hrs by CLSI based broth dilution method; assay type: functional; conditions: ATCC 19606 = CIP 70.34 = JCM 6841
[33] = system: Klebsiella pneumoniae; experiment: Antibacterial activity against Klebsiella pneumoniae ATCC 700603 incubated for 18 hrs by CLSI based broth dilution method; assay type: functional
[34] = system: Cell membrane; experiment: Disruption of membrane integrity in Staphylococcus aureus ATCC 25923 assessed as membrane shrinking at 1 times MIC measured within 0.5 hrs by scanning electron microscopy; assay type: subcellular
[35] = system: Bacteria; experiment: Antibacterial activity against bacteria incubated for 18 hrs by CLSI based broth dilution method; assay type: functional
[36] = Cytotoxicity against human glomerular mesangial cells incubated for 12 hrs by MTT assay; assay type: cell-based; conditions: Glomerular mesangial cell
[37] = system: Klebsiella pneumoniae; experiment: Antibacterial activity against Klebsiella pneumoniae ATCC 700603 incubated with 0.02 ug/ml chymotrypsin for 6 hrs followed by bacterial addition and measured after 18 hrs by CLSI based broth dilution method; assay type: functional, organism-based; conditions: dose 0.02 µg/ml, time 23.0 hrs
[38] = system: Staphylococcus aureus; experiment: Antibacterial activity against Staphylococcus aureus ATCC 25923 incubated with 0.02 ug/ml trypsin for 6 hrs followed by bacterial addition and measured after 18 hrs by CLSI based broth dilution method; assay type: functional, organism-based; conditions: dose 0.02 µg/ml, time 23.0 hrs
[39] = system: Klebsiella pneumoniae; experiment: Antibacterial activity against Klebsiella pneumoniae ATCC 700603 incubated with 0.02 ug/ml trypsin for 6 hrs followed by bacterial addition and measured after 18 hrs by CLSI based broth dilution method; assay type: functional, organism-based; conditions: dose 0.02 µg/ml, time 23.0 hrs
[40] = system: Staphylococcus aureus; experiment: Antibacterial activity against Staphylococcus aureus ATCC 25923 incubated with 0.02 ug/ml chymotrypsin for 6 hrs followed by bacterial addition and measured after 18 hrs by CLSI based broth dilution method; assay type: functional, organism-based; conditions: dose 0.02 µg/ml, time 23.0 hrs
[41] = system: Pseudomonas aeruginosa; experiment: Antibacterial activity against rifampin-resistant Pseudomonas aeruginosa ATCC 27853 incubated for 18 hrs by CLSI based broth dilution method; assay type: functional
[42] = system: Pseudomonas aeruginosa; experiment: Antibacterial activity against gentamicin-resistant Pseudomonas aeruginosa ATCC 27853 incubated for 18 hrs by CLSI based broth dilution method; assay type: functional
[43] = system: Pseudomonas aeruginosa; experiment: Antibacterial activity against Pseudomonas aeruginosa ATCC 27853 incubated for 18 hrs in presence of EDTA by CLSI based broth dilution method; assay type: functional
[44] = system: Pseudomonas aeruginosa; experiment: Antibacterial activity against rifampin-resistant Pseudomonas aeruginosa ATCC 27853 incubated for 18 hrs in presence of EDTA by CLSI based broth dilution method; assay type: functional
[45] = system: Pseudomonas aeruginosa; experiment: Antibacterial activity against Pseudomonas aeruginosa ATCC 27853 assessed as increase in MIC at sub-MIC level after 15 passages by broth microdilution assay; assay type: functional

Compound | MIC [2] [µM] | MIC [4] [µM] | selectivity ratio [6] | selectivity ratio at 18 h [9] | MIC [13] [µM] | MHC10 [14] | selectivity ratio [15] | Activity [16] | MIC [19] [µM] | MIC [20] [µM] | MIC [22] [µM] | MIC [23] [µM] | Activity [25] | MIC [26] [µM] | Activity [27] | selectivity ratio [28] | MIC [31] [µM] | MIC [32] [µM] | MIC [33] [µM] | MIC [35] [µM] | further results
CC[C@H](C)[C@H](NC(=O)[C@H](CCCNC(=N)N)NC(=O)[C@H](CCCCN)NC(=O)[C@H](CC(C)C)NC(=O)[C@H](CC(C)C)NC(=O)CN)C(=O)N[C@@H](CCCCN)C(=O)N[C@H](C(=O)N[C@@H](CC(C)C)C(=O)N[C@@H](CC(C)C)C(N)=O)[C@@H](C)O [ANOPLIN] (H-GLLKRIKTLL-NH2) | 64 (≈ 73.8 µg/mL) | 128 (≈ 148 µg/mL) | 5.66 | 8 | 90.5 (≈ 104 µg/mL) | >= 512 uM | 6.73 | Active | ≥ 512 | 256 (≈ 295 µg/mL) | 16 (≈ 18.5 µg/mL) | 8 (≈ 9.23 µg/mL) | Active | 76.1 (≈ 87.8 µg/mL) | Active | 6.73 | 8 (≈ 9.23 µg/mL) | ≥ 512 | 128 (≈ 148 µg/mL) | 76.1 (≈ 87.8 µg/mL) | Activity [1]: Active; Activity [3]: Active; Activity [5]: inactive; Activity [7]: Tde; Activity [8]: inactive; Activity [10]: Active; Activity [11]: Tde; Activity [12]: inactive; Time [17]: 12.14 min; Activity [18]: inactive; Activity [21]: Active; FIC [24]: 0.5625; Activity [29]: inactive; half-life [30]: 2.24 h; Activity [34]: inactive; IC50 [36]: ≥ 512 µM
CC[C@H](C)[C@H](NC(=O)CN)C(=O)NCC(=O)N[C@@H](C)C(=O)N[C@H](C(=O)N[C@@H](CC(C)C)C(=O)N[C@@H](CCCCN)C(=O)N[C@H](C(=O)N[C@@H](CC(C)C)C(=O)N[C@H](C(=O)N[C@H](C(=O)NCC(=O)N[C@@H](CC(C)C)C(=O)N1CCC[C@H]1C(=O)N[C@@H](C)C(=O)N[C@@H](CC(C)C)C(=O)N[C@H](C(=O)N[C@@H](CO)C(=O)N[C@@H](Cc1c[nH]c2ccccc12)C(=O)N[C@H](C(=O)N[C@@H](CCCCN)C(=O)N[C@@H](CCCNC(=N)N)C(=O)N[C@@H](CCCCN)C(=O)N[C@@H](CCCNC(=N)N)C(=O)N[C@@H](CCC(N)=O)C(=O)N[C@@H](CCC(N)=O)C(N)=O)[C@@H](C)CC)[C@@H](C)CC)[C@@H](C)O)[C@@H](C)O)C(C)C)C(C)C [MELITTIN] | 2.38 (≈ 6.77 µg/mL) | – | 0.34 | 0.95 | 6.73 (≈ 19.2 µg/mL) | 2.26 µM | 57 | Active | 4 (≈ 11.4 µg/mL) | – | – | – | Active | 4 (≈ 11.4 µg/mL) | Active | 57 | – | 2 (≈ 5.69 µg/mL) | 16 (≈ 45.5 µg/mL) | 4 (≈ 11.4 µg/mL) | Activity [37]: inactive; Activity [38]: inactive; Activity [39]: inactive; Activity [40]: inactive
CO[C@H]1/C=C/O[C@@]2(C)Oc3c(C)c(O)c4c(O)c(c(/C=N/N5CCN(C)CC5)c(O)c4c3C2=O)NC(=O)/C(C)=C\C=C\[C@H](C)[C@H](O)[C@@H](C)[C@@H](O)[C@@H](C)[C@H](OC(C)=O)[C@@H]1C [RIFAMPIN] | – | 4 (≈ 3.29 µg/mL) | – | – | – | – | – | – | < 1 | < 1 | < 1 | < 1 | – | – | – | – | 4 (≈ 3.29 µg/mL) | < 1 | 32 (≈ 26.3 µg/mL) | – | MIC [41]: 2050 µM (≈ 1690 µg/mL); MIC [42]: 32 µM (≈ 26.3 µg/mL); MIC [43]: 2 µM; MIC [44]: 2050 µM; fold change (FC) [45]: 128
